Measured values as given in patent publication US11839601B2, “Cannabis-enriched enzymatically treated therapeutic composition” (priority 2016, dated 2023).

Assay: Storage of honey / cannabis extract blends at room temperature, cannabinoid content after storage (conversion)
Format: physicochemical
Protocol: Cannabis plants of various strains were extracted using ethanol at ethanol to plant material weight/weight ratio of 8 to 1 for 30 minutes. Ethanol was removed from the extracts by evaporation under reduced pressure and the desolventized extracts were treated at 120° C. to reach complete decarboxylation. The cannabinoids content in each of the formed extracts was analyzed using HPLC.
Pure honey samples were blended with water and with the cannabis extracts to form what looked to the eye as homogeneous blends. Comparative blends were prepared by blending honey samples with extracts, but with no water addition. Cannabinoids concentrations in the blends were calculated, using the extracts compositions and the dilution by honey and water.
The blends were stored at room temperature for different durations. Then samples were taken and analyzed for cannabinoids content.

[1] = blend of 30 gr honey + 10 gr water + extract, 11 days
[2] = blend of 30 gr honey + 10 gr water + extract, glucose 64 %, 11 days, initial (calculated) THC 752 ppm, CBD 749 ppm
[3] = comparative blend of 30 gr honey + extract, no water, glucose 85 %, 18 days, initial (calculated) CBD 1150 ppm, THC 1050 ppm

SMILES | Conversion [1] | Concentrations after storage [2] | Concentrations after storage [3] | Conversion of THC compared with CBD (water-diluted honey blends, 11 days)
C=C(C)[C@@H]1CCC(C)=C[C@H]1c1c(O)cc(CCCCC)cc1O [CBD, cannabidiol] | 27 | 547 | 1148 | 
CCCCCc1cc(O)c2c(c1)OC(C)(C)[C@@H]1CCC(C)=C[C@@H]21 [THC, tetrahydrocannabinol] | 45 | 414 | 1047 | greater than that of CBD
